Structures can show the parent of a compound that is named as a salt.
| Compound | crystallization at higher loadings (higher loadings) | tendency to salt out (at higher concentrations, compared to the dicamba DGA salt) |
| --- | --- | --- |
| COc1c(Cl)ccc(Cl)c1C(=O)O.NCCOCCO [dicamba DGA salt, diglycolamine (DGA) salt of dicamba] | crystallizes out | – |
| COc1c(Cl)ccc(Cl)c1C(=O)O [dicamba EA salt, dicamba monoethanolamine salt] | – | less tendency to salt out |

— US20230056057A1, “HERBICIDE CO[…] MONOETHANOLAMINE SALT AND A PPO-INHIBITOR” (MONSANTO TECHNOLOGY LLC, priority 2020, published 2023)
